Experimental data taken from BigSolDB 2.1.

c1ccc(-c2ccc(C(c3ccccc3)n3ccnc3)cc2)cc1 (stereo not given)
solubility (mole fraction)
Settings	278.15 K	283.15 K	288.15 K	293.15 K	298.15 K	303.15 K	308.15 K	313.15 K	318.15 K
in isopropanol	0.00118	0.00165	0.00222	0.00309	0.0041	0.00554	0.00722	0.00951	0.0123
in methanol	0.00228	0.00304	0.00395	0.00517	0.0066	0.00844	0.0106	0.0135	0.0166
in n-propanol	0.00142	0.00196	0.00266	0.00355	0.00468	0.00612	0.00799	0.0106	0.0134
in propylene glycol	0.0017	0.00233	0.00316	0.00418	0.00547	0.00707	0.00916	0.0117	0.0149
in water	6.6e-06	9.22e-06	1.27e-05	1.7e-05	2.05e-05	2.88e-05	3.87e-05	4.82e-05	6.11e-05
